Each molecule was assayed on rabbit skeletal myofibrils (approximately 90% fast fibers) (assay: Activation of fast skeletal myofibrils (PUMA coupled-enzyme ATPase assay)). Settings: concentration at which the compound increased the enzymatic activity by 40%; calcium level pCa25.
Format: biochemical
Method: Preparation of fast skeletal myofibrils: Rabbit skeletal myofibrils were prepared based upon the method of Herrmann et al. (Biochem. 32(28):7255-7263(1993). Myofibrils were prepared from rabbit psoas muscle purchased from Pel-Freez Biologicals (Arkansas) within 2 days of ordering, stored on ice. Minced muscle was homogenized in 10 volumes of ice-cold “standard” buffer (50 mM Tris, pH 7.4, 0.1 M KOAc, 5 mM KCl, 2 mM dithiothreitol (DTT), 0.2 mM phenylmethylsulfonyl fluoride (PMSF), 10 μM leupeptin, 5 μM pepstatin, and 0.5 mM sodium azide) containing 5 mM ethylenediaminetetraacetic acid (EDTA) and 0.5% Triton X-100 using an Omni-Macro homogenizer. Myofibrils were recovered by low speed centrifugation (3000 rpm for 10 minutes) and washed 2 times in the Triton X-100 containing buffer to ensure removal of cellular membrane. Following the Triton washes, myofibrils were washed 3 times in “standard” buffer containing 2 mM magnesium acetate. A final wash in assay buffer (12 mM piperazine-1,4-bis(2-ethanesulfonic acid) (PIPES), pH 6.8, 60 mM KCl, 1 mM DTT) was performed and brought to 10% sucrose for flash freezing in liquid nitrogen and storage at −80° C.
Activation of Fast Skeletal Myofibrils: Fast fiber activators were identified by Measuring the enzymatic activity of muscle myofibril preparations using the proprietary PUMA (trademark) (see, e.g., U.S. Pat. Nos. 6,410,254, 6,743,599, 7,202,051, and 7,378,254) assay system. Myofibril preparations consisted of rabbit skeletal muscle (approximately 90% fast fibers) that had been mechanically homogenized and washed with a detergent (Triton X-100) to remove cellular membranes. This preparation retained all of the sarcomeric components in a native conformation and the enzymatic activity was still regulated by calcium. Compounds were tested using a myofibril suspension and a level of calcium sufficient to increase enzymatic activity of the myofibrils to 25% of their maximal rate (termed pCa25). Enzymatic activity was tracked via a pyruvate kinase and lactate dehydrogenase-coupled enzyme system. This assay regenerates myosin-produced ADP into ATP by oxidizing NADH, producing an absorbance change at 340 nm. The buffering system was 12 mM PIPES, 2 mM MgCl2, 1 mM DTT at pH 6.8 (PM12 buffer).
With `CC1(C)C(=O)NC2(COC2)c2ccc(Cl)nc21` [compound 90] the AC1.4 was 2.555 µM. For `CC(C)(O)CC1(C)C(=O)NC2(COC2)c2ccc(Cl)cc21` (stereo not drawn) [compound 137, 6-chloro-4-(2-hydroxy-2-methylpropyl)-4-methyl-2H-spiro[isoquinoline-1,3′-oxetan]-3(4H)-one], the AC1.4 was 2.365 µM. In the case of `C=CCC1(C)C(=O)NC(C)(C)c2ccc(C#N)nc21` (stereo not drawn) [compound 60], the AC1.4 is reported as 0.252 µM. For `CCC1(CC(F)F)C(=O)NC2(COC2)c2ccc(OC)nc21` (stereo not drawn) [compound 145], the AC1.4 was 0.581 µM. `CCC1(Cc2cccc(Cl)c2)C(=O)NC(C)(C)c2ccc(Br)cc21` (stereo not drawn) [compound 80] showed an AC1.4 of 0.112 µM. Molecule `CCC1(CCCO)C(=O)NC(C)(C)c2ccc(Br)cc21` (stereo not drawn) [compound 54] has an AC1.4 of 0.596 µM. `COC(=O)N1CCC2(CC1)C(=O)NC(C)(C)c1ccc(Cl)cc12` [compound 156] showed an AC1.4 of 5.881 µM. `C#CCC1(C)C(=O)NC(C)(C)c2ccc(C#N)nc21` (stereo not drawn) [compound 111] showed an AC1.4 of 0.321 µM. Molecule `CCC1C(=O)NC(C)(C)c2ccc(Br)cc21` (stereo not drawn) [compound 53] has an AC1.4 of 0.711 µM. `Cc1ccc2c(n1)C(C)(CC(F)F)C(=O)NC21COC1` (stereo not drawn) [92b] showed an AC1.4 of 0.400 µM. In the case of `CCC1(CC)C(=O)NC(C)(C)c2ccc(Cl)c(F)c21` [compound 141], the AC1.4 is reported as less than 0.077 µM. For `Cc1ccc2c(n1)C(C)(CC(F)F)C(=O)NC21COC1` (stereo not drawn) [92a], the AC1.4 was 1.318 µM. For `CCC1(Cc2ccc(Cl)cc2)C(=O)NC(C)(C)c2ccc(Br)cc21` (stereo not drawn) [compound 82], the AC1.4 was 0.084 µM. In the case of `CCC1(CC)C(=O)NC(C)(C)c2cc(Cl)c(C#N)cc21` [compound 34, 7-chloro-4,4-diethyl-1,1-dimethyl-3-oxo-1,2,3,4-tetrahydroisoquinoline-6-carbonitrile], the AC1.4 is reported as 0.229 µM. Molecule `CCC1(CC)C(=O)NC(C)(C)c2cc(C)c(C#N)cc21` [compound 97] has an AC1.4 of 0.332 µM. `CCC1(CCOC)C(=O)NC2(COC2)c2ccc(C#N)nc21` (stereo not drawn) [compound 112] was tested, and the AC1.4 was 1.437 µM. `CC1(C)C(=O)NC2(COC2)c2ccc(C#N)nc21` [compound 142] showed an AC1.4 of 2.377 µM. Molecule `CCC1(CC(=O)O)C(=O)NC(C)(C)c2ccc(Br)cc21` (stereo not drawn) [compound 91] has an AC1.4 of 20.240 µM. Work on `CCC1(CC)C(=O)NC(C)(C)c2c(C#N)cccc21` [compound 63] yielded an AC1.4 of 3.707 µM. Work on `CCC1(CC(F)F)C(=O)NC(C)(C)c2ccc(Br)cc21` (stereo not drawn) [compound 83] yielded an AC1.4 of less than 0.077 µM. Work on `CCC1(CC(F)F)C(=O)NC2(COC2)c2ccc(C(F)F)nc21` (stereo not drawn) [compound 88] yielded an AC1.4 of 0.203 µM. `CCC1(CC)C(=O)NC(C)(C)c2cc(C3CC3)c(C#N)cc21` [compound 98] was tested, and the AC1.4 was 2.085 µM. In the case of `CC1(C)NC(=O)C(C)(C)c2cc(Br)ccc21` [compound 51], the AC1.4 is reported as 0.093 µM. Molecule `CC1(C)NC(=O)C(C)(Cc2cn[nH]c2)c2nc(C#N)ccc21` (stereo not drawn) [compound 110] has an AC1.4 of 3.478 µM. Molecule `CCC1(CC)C(=O)NC(C)(C)c2ccc(C)cc21` [compound 46] has an AC1.4 of 0.106 µM. `Cc1ccc2c(n1)C(C)(CC(F)F)C(=O)NC21COC1` (stereo not drawn) [compound 95] showed an AC1.4 of 0.720 µM. `C=CCC1(C)C(=O)NC(C)(C)c2ccc(Cl)nc21` (stereo not drawn) [compound 76] gave an AC1.4 of 0.223 µM. `CC1(C)NC(=O)C(C)(C)c2nc(C#N)cnc21` [compound 153] was tested, and the AC1.4 was 1.590 µM. For `CCC1(C)C(=O)NC2(COC2)c2ccc(OC(F)F)nc21` (stereo not drawn) [compound 146], the AC1.4 was 0.283 µM. In the case of `CCC1(CCO)C(=O)NC2(COC2)c2ccc(C)nc21` (stereo not drawn) [compound 102], the AC1.4 is reported as 8.474 µM. `CC1(C)C(=O)NC2(COC2)c2ccc(F)cc21` [compound 157] showed an AC1.4 of 2.566 µM. Molecule `CC1(C)NC(=O)C(C)(Cn2cccn2)c2nc(C#N)ccc21` (stereo not drawn) [134b] has an AC1.4 of 4.986 µM. With `C=Cc1cnc2c(n1)C(CC)(CC)C(=O)NC21COC1` [compound 94] the AC1.4 was 8.994 µM. `CCC1(CC)C(=O)NC(C)(C)c2ccc(Cl)nc21` [compound 84] was tested, and the AC1.4 was 0.401 µM. `CC1(C)NC(=O)C(C)(C)c2cc(C#N)cnc21` [compound 58] showed an AC1.4 of 5.040 µM. In the case of `CC1(C)NC(=O)C(CCF)(CCF)c2cc(Br)ccc21` [compound 140], the AC1.4 is reported as 0.199 µM. `CN(c1ccccc1)C1C(=O)NC(C)(C)c2ccc(Br)cc21.Cl` (stereo not drawn) [compound 66] showed an AC1.4 of 2.502 µM. `C[C@@H](O)CC1(C)C(=O)NC2(COC2)c2ccc(Cl)cc21` (mixture of isomers) [167a, rac-(4R)-6-chloro-4-[(2R)-2-hydroxypropyl]-4-methyl-2H-spiro[isoquinoline-1,3′-oxetan]-3(4H)-one] was tested, and the AC1.4 was 3.293 µM. `CC1(C)NC(=O)C(C)(Cn2cccn2)c2nc(Cl)ccc21` (stereo not drawn) [compound 70] gave an AC1.4 of 0.522 µM. `CC1(C)C(=O)NC2(COC2)c2ccc(C(F)F)nc21` [compound 169] showed an AC1.4 of 1.730 µM. With `C=CCC1(C)NC(=O)C(CC)(CC)c2nc(Cl)ccc21` (stereo not drawn) [compound 77] the AC1.4 was 7.898 µM. Work on `CC1(C)NC(=O)C(C)(Cn2cccn2)c2nc(C#N)ccc21` (stereo not drawn) [134a] yielded an AC1.4 of 0.626 µM. `COc1ccc2c(n1)C(C)(C)C(=O)NC21COC1` [compound 147] was tested, and the AC1.4 was 2.346 µM. `CCC1(CC)C(=O)NC(C)(C(F)F)c2ccc(C#N)cc21` (stereo not drawn) [compound 59] showed an AC1.4 of 0.381 µM. For `CCC1(CC(=O)NCc2ccccc2)C(=O)NC(C)(C)c2ccc(Br)cc21` (stereo not drawn) [compound 139], the AC1.4 was 30.805 µM. For `CC1(C)NC(=O)C2(CCOCC2)c2cc(Br)ccc21` [compound 44], the AC1.4 was 5.982 µM. With `CCC1(CC)C(=O)NC(C)(C)c2ncc(Cl)nc21` [compound 69] the AC1.4 was 0.485 µM. Work on `CCC1(Cc2ccccc2Cl)C(=O)NC(C)(C)c2ccc(Br)cc21` (stereo not drawn) [compound 79] yielded an AC1.4 of less than 0.077 µM. Work on `CC1(C)NC(=O)C(C)(Cn2cccn2)c2nc(C#N)ccc21` (stereo not drawn) [compound 107] yielded an AC1.4 of 1.080 µM. With `CCC1(CC)C(=O)NC(C)(C)c2ccc(Cl)cc21` [compound 48] the AC1.4 was less than 0.077 µM. Molecule `CC1(C)NC(=O)C(c2ccccc2)c2ccccc21` (stereo not drawn) [compound 138] has an AC1.4 of 7.955 µM. Molecule `CC1(C)NC(=O)C2(CCOCC2)c2cc(C#N)ccc21` [compound 62] has an AC1.4 greater than 39.200 µM. For `C[C@H](O)CC1(C)C(=O)NC2(COC2)c2ccc(Cl)cc21` (mixture of isomers) [167b, rac-(4R)-6-chloro-4-[(2S)-2-hydroxypropyl]-4-methyl-2H-spiro[isoquinoline-1,3′-oxetan]-3(4H)-one], the AC1.4 was 0.869 µM. `CCC1(CC)C(=O)NC2(COC2)c2ccc(Cl)cc21` [compound 43] gave an AC1.4 of 0.051 µM. `CCC1(CC)C(=O)NC2(COC2)c2ncc(C#N)cc21` [compound 161] was tested, and the AC1.4 was 1.987 µM. For `CCC1(CCO)C(=O)NC2(COC2)c2ccc(C#N)cc21` (stereo not drawn) [compound 165], the AC1.4 was 1.202 µM. Molecule `CCC1(CC)C(=O)NC2(COC2)c2ccc(COC(F)F)nc21` [compound 143, 2-[(difluoromethoxy)methyl]-8,8-diethyl-6H-spiro[1,6-naphthyridine-5,3′-oxetan]-7(8H)-one] has an AC1.4 of 2.830 µM. Work on `CCC1(CCO)C(=O)NC2(COC2)c2ccc(OC(F)F)nc21` (stereo not drawn) [compound 105] yielded an AC1.4 of 4.313 µM. `CCC1(CCO)C(=O)NC(C)(C)c2ccc(Br)cc21` (stereo not drawn) [compound 115] showed an AC1.4 of 0.474 µM. `CC1(C)NC(=O)C(C)(CCO)c2cc(Cl)cnc21` (stereo not drawn) [compound 159] was tested, and the AC1.4 was 11.374 µM. In the case of `CCC1(CCOC)C(=O)NC2(COC2)c2ccc(C)nc21` (stereo not drawn) [compound 96], the AC1.4 is reported as 5.393 µM. For `CCC1(CC)C(=O)NC(C)(C)c2cc(Br)c(C#N)cc21` [compound 116], the AC1.4 was 0.274 µM. `CCN(CC)C1C(=O)NC(C)(C)c2ccc(Br)cc21.Cl` (stereo not drawn) [compound 65] showed an AC1.4 of 1.052 µM. For `CC1(Cn2cccn2)C(=O)NC2(COC2)c2ccc(Cl)cc21` (stereo not drawn) [compound 75], the AC1.4 was 1.174 µM. In the case of `CC1(C)NC(=O)C2(CCN(S(C)(=O)=O)CC2)c2cc(Cl)ccc21` [compound 155, 6-chloro-1,1-dimethyl-1′-(methylsulfonyl)-1,2-dihydro-3H-spiro[isoquinoline-4,4′-piperidin]-3-one], the AC1.4 is reported as 8.340 µM. With `CCC1(CC)C(=O)NC(C)(C)c2c(OC)cc(OC)cc21` [compound 50] the AC1.4 was 0.763 µM. In the case of `CCC1(CC)C(=O)NC2(COC2)c2ncc(Cl)nc21` [compound 68], the AC1.4 is reported as 0.830 µM. `CCC1(C)C(=O)NC(C)(C)c2ccc(Cl)nc21` (stereo not drawn) [compound 71] showed an AC1.4 of 0.367 µM. `CCC1(CCF)C(=O)NC(C)(C)c2ccc(Br)cc21` (stereo not drawn) [compound 81] showed an AC1.4 of 0.098 µM.

Reference: patent publication US11479561B2, “Tetrahydroisoquinoline derivatives” (Cytokinetics, Incorporated, priority 2016, dated 2022)
